Assay results as given in ChEMBL document CHEMBL2021815, “Metabolism of 4-Aminopiperidine Drugs by Cytochrome P450s: Molecular and Quantum Mechanical Insights into Drug Design” (ACS Med Chem Lett, 2011).

How the values were obtained:
Assay type in all cases: ADME, Microsome
[1] = target: T1, CYP2C8 (Homo sapiens, UniProt P10632); assay: Half life in human liver microsomes assessed as CYP2C8-mediated parent compound depletion at 1 uM
T1 sequence (P10632 whole entry): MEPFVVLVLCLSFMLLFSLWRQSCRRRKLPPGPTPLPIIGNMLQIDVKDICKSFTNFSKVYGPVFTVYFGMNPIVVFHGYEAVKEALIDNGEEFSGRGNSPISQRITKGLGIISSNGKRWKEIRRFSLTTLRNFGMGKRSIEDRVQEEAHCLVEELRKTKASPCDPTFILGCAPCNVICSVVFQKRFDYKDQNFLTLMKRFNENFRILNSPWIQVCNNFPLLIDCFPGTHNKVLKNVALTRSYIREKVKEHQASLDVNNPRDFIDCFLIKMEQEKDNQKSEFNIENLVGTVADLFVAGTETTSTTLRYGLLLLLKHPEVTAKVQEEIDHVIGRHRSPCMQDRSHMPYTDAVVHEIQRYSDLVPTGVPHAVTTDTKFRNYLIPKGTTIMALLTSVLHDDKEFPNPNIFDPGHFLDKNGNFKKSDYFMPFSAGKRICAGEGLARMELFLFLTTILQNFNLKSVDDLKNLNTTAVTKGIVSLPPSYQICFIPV

[2] = target: T2, CYP1A2 (Homo sapiens, UniProt P05177); assay: Half life in human liver microsomes assessed as CYP1A2-mediated parent compound depletion at 1 uM
T2 sequence (P05177 whole entry): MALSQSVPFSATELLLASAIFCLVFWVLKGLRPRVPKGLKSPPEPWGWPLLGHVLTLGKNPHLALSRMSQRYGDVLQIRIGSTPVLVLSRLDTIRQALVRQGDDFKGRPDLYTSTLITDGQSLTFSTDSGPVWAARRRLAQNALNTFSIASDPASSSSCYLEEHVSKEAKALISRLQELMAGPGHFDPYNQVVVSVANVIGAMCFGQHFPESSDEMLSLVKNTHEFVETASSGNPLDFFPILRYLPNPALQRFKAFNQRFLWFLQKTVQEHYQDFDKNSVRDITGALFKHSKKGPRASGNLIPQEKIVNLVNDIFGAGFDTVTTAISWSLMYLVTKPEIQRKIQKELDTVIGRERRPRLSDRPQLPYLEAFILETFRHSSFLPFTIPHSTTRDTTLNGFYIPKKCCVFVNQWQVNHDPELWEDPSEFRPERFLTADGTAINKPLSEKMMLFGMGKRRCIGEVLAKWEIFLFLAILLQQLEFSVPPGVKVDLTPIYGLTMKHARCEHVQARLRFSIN

[3] = target: CYP2C19 (Homo sapiens, UniProt P33261); assay: Half life in human liver microsomes assessed as CYP2C19-mediated parent compound depletion at 1 uM
[4] = target: CYP3A4 (Homo sapiens, UniProt P08684); assay: Half life in human liver microsomes assessed as CYP3A4-mediated parent compound depletion at 1 uM
[5] = target: T3, CYP2B6 (Homo sapiens, UniProt P20813); assay: Half life in human liver microsomes assessed as CYP2B6-mediated parent compound depletion at 1 uM
T3 sequence (P20813 whole entry): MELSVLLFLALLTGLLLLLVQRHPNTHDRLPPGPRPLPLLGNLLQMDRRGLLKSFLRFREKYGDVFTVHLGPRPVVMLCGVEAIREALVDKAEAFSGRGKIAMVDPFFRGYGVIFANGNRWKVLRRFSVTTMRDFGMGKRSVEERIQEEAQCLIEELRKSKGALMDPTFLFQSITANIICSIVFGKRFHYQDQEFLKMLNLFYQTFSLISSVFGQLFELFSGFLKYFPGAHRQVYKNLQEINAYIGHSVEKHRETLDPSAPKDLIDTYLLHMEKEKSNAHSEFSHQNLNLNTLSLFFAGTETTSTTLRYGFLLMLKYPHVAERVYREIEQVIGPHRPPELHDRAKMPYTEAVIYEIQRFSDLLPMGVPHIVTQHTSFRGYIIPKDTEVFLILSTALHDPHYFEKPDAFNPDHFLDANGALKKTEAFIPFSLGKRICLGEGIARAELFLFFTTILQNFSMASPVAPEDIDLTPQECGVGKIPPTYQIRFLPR

[6] = system: Liver microsomes; assay: Clearance in human liver microsomes at 1 uM
[7] = target: CYP2D6 (Homo sapiens, UniProt P10635); assay: Half life in human liver microsomes assessed as CYP2D6-mediated parent compound depletion at 1 uM
[8] = target: CYP2C9 (Homo sapiens, UniProt P11712); assay: Half life in human liver microsomes assessed as CYP2C9-mediated parent compound depletion at 1 uM
CYP2C9, sequence (P11712 whole entry): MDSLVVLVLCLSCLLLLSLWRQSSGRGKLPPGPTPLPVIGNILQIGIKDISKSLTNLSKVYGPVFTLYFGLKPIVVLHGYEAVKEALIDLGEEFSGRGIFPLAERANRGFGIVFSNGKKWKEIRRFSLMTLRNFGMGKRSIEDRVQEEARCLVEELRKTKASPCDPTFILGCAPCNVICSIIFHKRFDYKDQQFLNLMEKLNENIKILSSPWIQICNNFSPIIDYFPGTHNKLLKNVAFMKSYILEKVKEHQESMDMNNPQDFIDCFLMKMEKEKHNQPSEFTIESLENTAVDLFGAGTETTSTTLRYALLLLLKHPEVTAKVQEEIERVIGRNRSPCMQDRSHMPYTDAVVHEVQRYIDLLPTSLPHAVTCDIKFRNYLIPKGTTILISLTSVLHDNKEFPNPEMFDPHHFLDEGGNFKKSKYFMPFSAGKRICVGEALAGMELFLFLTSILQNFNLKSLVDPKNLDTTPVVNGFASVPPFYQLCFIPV

CYP3A4, sequence (P08684 whole entry): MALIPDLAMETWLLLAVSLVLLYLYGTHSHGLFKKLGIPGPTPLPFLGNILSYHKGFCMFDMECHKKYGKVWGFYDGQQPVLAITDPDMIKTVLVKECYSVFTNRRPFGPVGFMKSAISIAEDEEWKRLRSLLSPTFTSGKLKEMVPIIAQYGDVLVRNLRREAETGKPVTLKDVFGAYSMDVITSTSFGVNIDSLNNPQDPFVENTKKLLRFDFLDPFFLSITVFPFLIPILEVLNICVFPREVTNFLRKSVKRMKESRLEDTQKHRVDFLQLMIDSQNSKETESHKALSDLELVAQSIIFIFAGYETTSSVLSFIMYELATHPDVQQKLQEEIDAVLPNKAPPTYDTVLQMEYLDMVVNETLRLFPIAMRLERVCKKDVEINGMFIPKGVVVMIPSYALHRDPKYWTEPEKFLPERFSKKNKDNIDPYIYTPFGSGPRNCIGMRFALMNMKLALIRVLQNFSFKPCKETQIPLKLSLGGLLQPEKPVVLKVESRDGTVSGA
CYP2D6, sequence (P10635 whole entry): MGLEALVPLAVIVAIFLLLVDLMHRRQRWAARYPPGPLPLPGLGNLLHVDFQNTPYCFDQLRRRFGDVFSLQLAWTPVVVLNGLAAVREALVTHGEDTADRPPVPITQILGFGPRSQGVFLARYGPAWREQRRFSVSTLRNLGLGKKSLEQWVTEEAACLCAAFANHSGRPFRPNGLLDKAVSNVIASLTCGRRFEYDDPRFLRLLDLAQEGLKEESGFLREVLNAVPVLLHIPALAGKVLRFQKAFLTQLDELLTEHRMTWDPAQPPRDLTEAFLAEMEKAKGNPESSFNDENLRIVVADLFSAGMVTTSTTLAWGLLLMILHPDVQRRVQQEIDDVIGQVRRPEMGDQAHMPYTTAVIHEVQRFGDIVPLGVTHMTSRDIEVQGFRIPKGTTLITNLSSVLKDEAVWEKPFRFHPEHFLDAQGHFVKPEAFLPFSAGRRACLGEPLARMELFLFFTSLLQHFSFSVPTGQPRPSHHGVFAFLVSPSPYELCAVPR
CYP2C19, sequence (P33261 whole entry): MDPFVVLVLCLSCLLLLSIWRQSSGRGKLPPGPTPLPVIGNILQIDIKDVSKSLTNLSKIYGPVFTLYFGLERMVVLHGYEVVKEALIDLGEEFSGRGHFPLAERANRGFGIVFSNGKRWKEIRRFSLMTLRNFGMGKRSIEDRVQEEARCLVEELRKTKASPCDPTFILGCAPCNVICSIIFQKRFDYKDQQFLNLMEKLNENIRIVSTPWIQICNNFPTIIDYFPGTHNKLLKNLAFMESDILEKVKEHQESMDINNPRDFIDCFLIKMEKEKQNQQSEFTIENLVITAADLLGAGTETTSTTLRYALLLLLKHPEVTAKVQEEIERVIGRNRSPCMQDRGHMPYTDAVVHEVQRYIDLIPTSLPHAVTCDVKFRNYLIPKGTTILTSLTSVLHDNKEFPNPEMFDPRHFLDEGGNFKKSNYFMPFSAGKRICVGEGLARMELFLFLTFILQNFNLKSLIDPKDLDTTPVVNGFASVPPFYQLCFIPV

Q: How did the half-life at 1 µM [1] turn out when `O=C(CCCN1CCC(n2c(O)nc3ccccc32)CC1)c1ccc(F)cc1` [BENPERIDOL] was run?
A: Its half-life at 1 µM is 0.73 h.

Q: And the half-life at 1 µM [2]?
A: Its half-life at 1 µM is greater than 1 h.

Q: And the half-life at 1 µM [3]?
A: Its half-life at 1 µM is greater than 1 h.

Q: What about the half-life at 1 µM [4] of the same compound?
A: The half-life at 1 µM was 0.055 h.

Q: What about the half-life at 1 µM [5] of the same compound?
A: The half-life at 1 µM was greater than 1 h.

Q: And the CLH [6]?
A: The CLH was 42 µL/min/mg.

Q: What about the half-life at 1 µM [7] of the same compound?
A: Its half-life at 1 µM is 0.173 h.

Q: And the half-life at 1 µM [8]?
A: Its half-life at 1 µM is greater than 1 h.

Q: What does the source list for `O=c1[nH]c2ccccc2n1C1CCN(CCCC(c2ccc(F)cc2)c2ccc(F)cc2)CC1` [PIMOZIDE]?
A: half-life at 1 µM [1]: > 1 h; half-life at 1 µM [2]: > 1 h; half-life at 1 µM [3]: > 1 h; half-life at 1 µM [4]: 0.045 h; half-life at 1 µM [5]: > 1 h; CLH [6]: 57 µL/min/mg; half-life at 1 µM [7]: 0.0533 h; half-life at 1 µM [8]: > 1 h

Q: With `COc1cc(N)c(Cl)cc1C(=O)NC1CCN(Cc2ccccc2)CC1` [CLEBOPRIDE] as the compound, how does the half-life at 1 µM [1] read?
A: The half-life at 1 µM was greater than 1 h.

Q: And the half-life at 1 µM [2]?
A: Its half-life at 1 µM is greater than 1 h.

Q: What about the half-life at 1 µM [3] of the same compound?
A: The half-life at 1 µM was greater than 1 h.

Q: And the half-life at 1 µM [4]?
A: Its half-life at 1 µM is less than 0.0833 h.

Q: What about the half-life at 1 µM [5] of the same compound?
A: The half-life at 1 µM was greater than 1 h.

Q: What about the “Intrinsic clearance in liver microsomes” value [6] of the same compound?
A: The value was 50.4 µL/min/mg.

Q: And the half-life at 1 µM [7]?
A: The half-life at 1 µM was greater than 1 h.

Q: And the half-life at 1 µM [8]?
A: The half-life at 1 µM was greater than 1 h.

Q: What does the source list for `COc1ccc(CCN2CCC(Nc3nc4ccccc4n3Cc3ccc(F)cc3)CC2)cc1` [ASTEMIZOLE]?
A: half-life at 1 µM [1]: > 1 h; half-life at 1 µM [2]: > 1 h; half-life at 1 µM [3]: > 1 h; half-life at 1 µM [4]: 0.025 h; half-life at 1 µM [5]: > 1 h; Intrinsic clearance in liver microsomes [6]: 136 µL/min/mg; half-life at 1 µM [7]: 0.0667 h; half-life at 1 µM [8]: > 1 h

Q: With `CN(c1nc2ccccc2s1)C1CCN(CC(O)COc2ccc(F)cc2)CC1` (stereo unspecified) [SABELUZOLE] as the compound, how does the half-life at 1 µM [1] read?
A: Its half-life at 1 µM is greater than 1 h.

Q: What about the half-life at 1 µM [2] of the same compound?
A: Its half-life at 1 µM is greater than 1 h.

Q: What about the half-life at 1 µM [3] of the same compound?
A: The half-life at 1 µM was greater than 1 h.

Q: What about the half-life at 1 µM [4] of the same compound?
A: The half-life at 1 µM was less than 0.0833 h.

Q: What about the half-life at 1 µM [5] of the same compound?
A: The half-life at 1 µM was greater than 1 h.

Q: What about the “Intrinsic clearance in liver microsomes” value [6] of the same compound?
A: The value was 37 µL/min/mg.

Q: What about the half-life at 1 µM [7] of the same compound?
A: The half-life at 1 µM was 0.025 h.

Q: And the half-life at 1 µM [8]?
A: Its half-life at 1 µM is greater than 1 h.

Q: How did the half-life at 1 µM [1] turn out when `O=C(NC1CCN(CCc2c[nH]c3ccccc23)CC1)c1ccccc1` [INDORAMIN] was run?
A: The half-life at 1 µM was greater than 1 h.

Q: What about the half-life at 1 µM [2] of the same compound?
A: The half-life at 1 µM was greater than 1 h.

Q: And the half-life at 1 µM [3]?
A: The half-life at 1 µM was greater than 1 h.

Q: And the half-life at 1 µM [4]?
A: The half-life at 1 µM was 0.267 h.

Q: And the half-life at 1 µM [5]?
A: Its half-life at 1 µM is greater than 1 h.

Q: And the “Intrinsic clearance in liver microsomes” value [6]?
A: Its value is 46.4 µL/min/mg.

Q: And the half-life at 1 µM [7]?
A: Its half-life at 1 µM is less than 0.0833 h.

Q: And the half-life at 1 µM [8]?
A: The half-life at 1 µM was greater than 1 h.

Q: Which CLH [6] does the source give for `O=c1[nH]c2ccccc2n1CCCN1CCC(n2c(=O)[nH]c3cc(Cl)ccc32)CC1` [DOMPERIDONE] here?
A: Its CLH is 108.6 µL/min/mg.

Q: Which results are given for `COc1cc(N)c(Cl)cc1C(=O)NC1CCN(CCCOc2ccc(F)cc2)CC1OC` (stereo unspecified) [CISAPRIDE]?
A: half-life at 1 µM [1]: > 1 h; half-life at 1 µM [2]: > 1 h; half-life at 1 µM [3]: > 1 h; half-life at 1 µM [5]: > 1 h; Intrinsic clearance in liver microsomes [6]: 120.7 µL/min/mg; half-life at 1 µM [7]: > 1 h; half-life at 1 µM [8]: > 1 h
